In patent publication US12472168B2, “Ring-fused thiazolino 2-pyridones, methods for preparation thereof and their use in the treatment and/or prevention of a disease involving gram-positive bacteria” (Quretech Bio AB, priority 2017, dated 2025):
Values after ≈ are worked out from the molar mass of the structure shown. Where a name gives a salt, the structure may show the parent alone. Read-outs that look alike come from different tables or passages of the source.

Key:
MRSA = test: Minimum Inhibitory Concentration (MIC) and Minimum Bactericidal Concentration (MBC) assays; format: cell-based, Methicillin-resistant Staphylococcus aureus; settings: compound alone, no antibiotic; for MIC: overnight (18 hrs)
Method: (§1) MIC was defined by the lowest concentration of the test compound that inhibits visible growth of pathogen of interest. The optical density of the pathogen of interest culture was measured by OD600.
(§2) MBC was determined colony forming units (CFUs) enumeration by serially diluting and plating bacterial cultures on BHI plates.
(§3) Thus, no antibiotic was used in Table 2.

E. faecalis = test: MIC and MBC assays; format: cell-based; settings: Enterococcus faecalis, compound alone, no antibiotic; for MIC: overnight (18 hrs)
Method: as §1, §2, §3

Streptococcus = test: MIC and MBC assays; format: cell-based; settings: compound alone, no antibiotic
Method: as §1, §2, §3

Staph. aureus = test: MIC and MBC assays; format: cell-based; settings: Staphylococcus aureus, compound alone, no antibiotic; for MIC: overnight (18 hrs)
Method: (§4) […]. MIC was defined by the lowest concentration of the test compound that inhibits visible growth of pathogen of interest. The optical density of the pathogen of interest culture was measured by OD600.
(§5) […]. MBC was determined colony forming units (CFUs) enumeration by serially diluting and plating bacterial cultures on BHI plates.
(§6) . Thus, no antibiotic was used in Table 2.

Strep. pyogenes = test: MIC and MBC assays; format: cell-based; settings: Streptococcus pyogenes, compound alone, no antibiotic
Method: as §4, §5, §6

[1] = Staphylococcus aureus, 18 h, read-out: MIC

Row | MIC (E. faecalis) | SMILES | MIC (MRSA; [1]) | MBC (Strep. pyogenes) | other results
1 |  | CCCCCCn1cc(-c2sc3c(OC)c(Cc4cccc5ccccc45)cc(=O)n3c2C(=O)O)nn1 [Example 15, 8-(1-Hexyl-1H-1,2,3-triazol-4-yl)-5-methoxy-4-[(1-naphthyl)methyl]-2-oxo-7-thia-1-azabicyclo[4.3.0]nona-3,5,8-triene-9-carboxylic acid] | 100 µM (≈ 51.7 µg/mL) |  | 
2 | > 100 µM | C#CCCCCOc1ccc(-c2sc3c(OC)c(Cc4cccc5ccccc45)cc(=O)n3c2C(=O)O)cc1C [Example 22, 8-[4-(5-Hexynyloxy)-3-methyl-phenyl]-5-methoxy-4-[(1-naphthyl)methyl]-2-oxo-7-thia-1-azabicyclo[4.3.0]nona-3,5,8-triene-9-carboxylic acid] | 6 µM (≈ 3.31 µg/mL) |  | 
3 |  | CCCCCCn1cc(-c2sc3c(OC)c(Cc4cccc5ccccc45)cc(=O)n3c2C(=O)O)nn1 [Example 16, 8-(1-Hexyl-1H-1,2,3-triazol-4-yl)-5-methoxy-4-[(1-naphthyl)methyl]-2-oxo-7-thia-1-azabicyclo[4.3.0]nona-3,5,8-triene-9-carboxylic acid imidazole salt] |  |  | MIC (MRSA): 200/nd uM
4 | > 100 µM | COc1c(Cc2cccc3ccccc23)cc(=O)n2c(C(=O)O)c(-c3ccc(OCCC=C(C)C)c(C)c3)sc12 [Example 24, 5-Methoxy-8-[4-(4-methyl-3-pentenyloxy)-3-methyl-phenyl]-4-[(1-naphthyl)methyl]-2-oxo-7-thia-1-azabicyclo[4.3.0]nona-3,5,8-triene-9-carboxylic acid] | 45 µM (≈ 24.9 µg/mL) |  | 
5 | > 100 µM | COc1c(Cc2cccc3ccccc23)cc(=O)n2c(C(=O)O)c(-c3ccc(OCC4CC4)c(C)c3)sc12 [Example 26, 8-[4-(Cyclopropylmethoxy)-3-methyl-phenyl]-5-methoxy-4-[(1-naphthyl)methyl]-2-oxo-7-thia-1-azabicyclo[4.3.0]nona-3,5,8-triene-9-carboxylic acid] | 12 µM (≈ 6.31 µg/mL) |  | 
6 | 183 µM (≈ 106 µg/mL) | CCCCCCCOc1ccc(-c2sc3c(C4CC4)c(Cc4cccc5ccccc45)cc(=O)n3c2C(=O)O)cc1C [Example 3, 5-Cyclopropyl-8-[4-(heptyloxy)-3-methyl-phenyl] 4-[(1-naphthyl)methyl]-2-oxo-7-thia-1-azabicyclo[4.3.0]nona-3,5,8-triene-9-carboxylic acid] | 167 µM (≈ 96.8 µg/mL) |  | MBC (E. faecalis): 100 µM (≈ 58 µg/mL); MBC (Streptococcus): 50 µM (≈ 29 µg/mL)
7 |  | CCCCCCOc1ccc(-c2sc3c(N)c(Cc4cccc5ccccc45)cc(=O)n3c2C(=O)O)cc1C [Example 27, 5-Amino-8-[4-(hexyloxy)-3-methyl-phenyl]-4-[(1-naphthyl)methyl]-2-oxo-7-thia-1-azabicyclo[4.3.0]nona-3,5,8-triene-9-carboxylic acid] | 25 µM (≈ 13.5 µg/mL) |  | 
8 |  | Cc1ccc(-c2sc3c(C4CC4)c(Cc4cccc5ccccc45)cc(=O)n3c2C(=O)O)cc1 [Example 31, 5-Cyclopropyl-4-[(1-naphthyl)methyl]-2-oxo-8-(p-tolyl)-7-thia-1-azabicyclo[4.3.0]nona-3,5,8-triene-9-carboxylic acid] | 50 µM (≈ 23.3 µg/mL) | 50 µM (≈ 23.3 µg/mL) | MBC (MRSA; Staphylococcus aureus): 100 µM (≈ 46.6 µg/mL); MBC (Staph. aureus): 100 µM (≈ 46.6 µg/mL); MIC (Staph. aureus): 50 µM (≈ 23.3 µg/mL)
9 |  | O=C(O)c1c(-c2ccccc2)sc2c(C3CC3)c(Cc3cccc4ccccc34)cc(=O)n12 [Example 29, 5-Cyclopropyl-4-[(1-naphthyl)methyl]-2-oxo-8-phenyl-7-thia-1-azabicyclo[4.3.0]nona-3,5,8-triene-9-carboxylic acid] | 250 µM (≈ 113 µg/mL) | 25 µM (≈ 11.3 µg/mL) | MBC (MRSA; Staphylococcus aureus): 200 µM (≈ 90.3 µg/mL); MBC (Staph. aureus): 200 µM (≈ 90.3 µg/mL); MIC (Staph. aureus): 100 µM (≈ 45.2 µg/mL); MIC (Strep. pyogenes; overnight (18 hrs)): 25 µM (≈ 11.3 µg/mL)
10 |  | O=C(O)c1c(-c2ccoc2)sc2c(C3CC3)c(Cc3cccc4ccccc34)cc(=O)n12 [Example 36, 5-Cyclopropyl-8-(3-furyl)-4-[(1-naphthyl)methyl]-2-oxo-7-thia-1-azabicyclo[4.3.0]nona-3,5,8-triene-9-carboxylic acid] |  | 25 µM (≈ 11 µg/mL) | 
11 | 300 µM (≈ 161 µg/mL) | CCCCCOc1ccc(-c2sc3c(C4CC4)c(Cc4cccc5ccccc45)cc(=O)n3c2C(=O)O)cc1 [Example 12, 5-Cyclopropyl-4-[(1-naphthyl)methyl]-2-oxo-8-[p-(pentyloxy)phenyl]-7-thia-1-azabicyclo[4.3.0]nona-3,5,8-triene-9-carboxylic acid] | 70 µM (≈ 37.6 µg/mL) |  | MBC (MRSA; Staphylococcus aureus): 25 µM (≈ 13.4 µg/mL); MBC (Streptococcus): 2 µM (≈ 1.08 µg/mL)
12 |  | O=C(O)c1c(-c2ccco2)sc2c(C3CC3)c(Cc3cccc4ccccc34)cc(=O)n12 [Example 35, 5-Cyclopropyl-8-(2-furyl)-4-[(1-naphthyl)methyl]-2-oxo-7-thia-1-azabicyclo[4.3.0]nona-3,5,8-triene-9-carboxylic acid] |  | 50 µM (≈ 22.1 µg/mL) | 
13 | > 400 µM | O=C(O)c1c(-c2ccc3c(c2)OCCO3)sc2c(C3CC3)c(Cc3cccc4ccccc34)cc(=O)n12 [Example 33, 5-Cyclopropyl-8-(1,4-dioxa-2,3-dihydronaphth-6-yl)-4-[(1-naphthyl)methyl]-2-oxo-7-thia-1-azabicyclo[4.3.0]nona-3,5,8-triene-9-carboxylic acid] |  | 20 µM (≈ 10.2 µg/mL) | MBC (Staph. aureus): 400 µM (≈ 204 µg/mL)
14 |  | COCCOc1ccc(-c2sc3c(OC)c(Cc4cccc5ccccc45)cc(=O)n3c2C(=O)O)cc1C [Example 17, 5-Methoxy-8-[4-(2-methoxyethoxy)-3-methyl-phenyl]-4-[(1-naphthyl)methyl]-2-oxo-7-thia-1-azabicyclo[4.3.0]nona-3,5,8-triene-9-carboxylic acid] | > 25 µM |  | 
15 | > 100 µM | C=CCOc1ccc(-c2sc3c(OC)c(Cc4cccc5ccccc45)cc(=O)n3c2C(=O)O)cc1C [Example 21, 8-[4-(Allyloxy)-3-methyl-phenyl]-5-methoxy-4-[(1-naphthyl)methyl]-2-oxo-7-thia-1-azabicyclo[4.3.0]nona-3,5,8-triene-9-carboxylic acid] | 19 µM (≈ 9.72 µg/mL) |  | 
16 |  | COCCOc1ccc(-c2sc3c(C4CC4)c(Cc4cccc5ccccc45)cc(=O)n3c2C(=O)O)cc1C [Example 18, 5-Cyclopropyl-8-[4-(2-methoxyethoxy)-3-methyl-phenyl]-4-[(1-naphthyl)methyl]-2-oxo-7-thia-1-azabicyclo[4.3.0]nona-3,5,8-triene-9-carboxylic acid] | > 25 µM |  | 
17 |  | O=C(O)c1c(-c2ccc3[nH]ccc3c2)sc2c(C3CC3)c(Cc3cccc4ccccc34)cc(=O)n12 [Example 32, 5-Cyclopropyl-8-(1H-indol-5-yl)-4-[(1-naphthyl)methyl]-2-oxo-7-thia-1-azabicyclo[4.3.0]nona-3,5,8-triene-9-carboxylic acid] | 200 µM (≈ 98.1 µg/mL) | 50 µM (≈ 24.5 µg/mL) | MBC (MRSA; Staphylococcus aureus): > 400 µM; MBC (E. faecalis): > 400 µM
18 | > 100 µM | C=CCCCCOc1ccc(-c2sc3c(OC)c(Cc4cccc5ccccc45)cc(=O)n3c2C(=O)O)cc1C [Example 25, 8-[4-(5-Hexenyloxy)-3-methyl-phenyl]-5-methoxy-4-[(1-naphthyl)methyl]-2-oxo-7-thia-1-azabicyclo[4.3.0]nona-3,5,8-triene-9-carboxylic acid] | 45 µM (≈ 24.9 µg/mL) |  | 
19 |  | O=C(O)c1c(-c2ccsc2)sc2c(C3CC3)c(Cc3cccc4ccccc34)cc(=O)n12 [Example 34, 5-Cyclopropyl-4-[(1-naphthyl)methyl]-2-oxo-8-(3-thienyl)-7-thia-1-azabicyclo[4.3.0]nona-3,5,8-triene-9-carboxylic acid] |  | 25 µM (≈ 11.4 µg/mL) | MBC (MRSA; Staphylococcus aureus): 250 µM (≈ 114 µg/mL); MBC (Staph. aureus): 400 µM (≈ 183 µg/mL)
